Experiments:
human PD-L1 = human PD-L1 (Homo sapiens (Human), UniProt Q9NZQ7); test: T cell activation luciferase reporter cell culture system (T Cell Activation Assay); assay type: cell-based; settings: luciferase reporter assay; PD-L1 aAPC/CHO-K1 cells with PD-1 effector Jurkat T cells
[1] = system: MC38 tumors expressing human PD-L1; test: In vivo anti-tumor efficacy in humanized PD-L1 and PD-1 expressing MC38 tumor mouse model
Protocol: In one aspect, this assay measures the ability of a PD-L1 inhibitor to reduce the size of MC38 (a murine colon adenocarcinoma cell line) tumors in mice, as an indication of the PD-L1 inhibitor's ability to help treat, ameliorate, and/or prevent cancer in the subject.
In vivo anti-tumor efficacy of compounds was evaluated in mice expressing humanized PD-1 and PD-L1, in which the extracellular domains of murine PD-1 and PD-L1 were genetically replaced with the human extracellular domain counterparts (Huang et al., Scientific Reports, 2017; 7:42687). Humanized PD-1/PD-L1 (hPD-1/hPD-L1) mice were subcutaneously implanted with the colorectal cancer cell line MC38 expressing human PD-L1 and compound treatment initiated when tumor volumes reached approximately 100 mm^3. Compounds were administered via oral gavage once daily at: 30 mg/kg between study days 1 and 7; or 10 mg/kg for 28 days. The anti-PD-L1 monoclonal antibody atezolizumab was included as a positive reference control and administered via intraperitoneal injection at 0.3 mg/kg thrice weekly between study days 1 and 15. Tumor lengths and widths were measured by digital caliper and tumor volumes were calculated by the formula: […].

[2] = target: PD-L1 His protein / PD-1 Fc protein (Homo sapiens (Human), UniProt Q9NZQ7); test: HTRF Assay (PD-1/PD-L1 interaction); assay type: binding; settings: PD-L1 His 6 nM, PD-1 Fc 6 nM
HBV-specific T cells = test: HBV-specific T cell reinvigoration in vitro assay using PBMCs from chronic hepatitis B patients; assay type: cell-based, human; settings: relative to HBV-specific peptide treatment alone, 24 hours; for Fold Change in IFN-γ Expression of HBV-specific T Cells, Mean ± SD: Mean ± SD of nine chronic hepatitis B donors
Protocol: In one aspect, this assay measures the ability of a PD-L1 inhibitor to increase HBV specific T cell activity in an infected subject, as measured by the increase in interferon-gamma expression by those T cells.
The ability of PD-L1 inhibitor compounds to reinvigorate HBV-specific T cell activity was assessed as described. PBMCs from nine chronic hepatitis B patients were obtained by Ficoll separation of fresh whole blood and frozen in liquid nitrogen as described previously (Park et al., Nature Communications, 2021; 12:1222). Frozen PBMCs were thawed and plated into 12-well plates at 2×10^6 cells/ml. PBMCs were rested overnight at 37° C. before they were stimulated with HBV-specific peptide pools and allowed to proliferate for 5 days. Expanded PBMCs were then restimulated with HBV-specific peptide pools alone or stimulated with HBV-specific peptide pools and incubated with compounds 89, 90, and 139, a negative control, or anti-PD-L1 antibody as reference. Supernatant was obtained after 24 hours and assayed for IFN-γ using the Luminex platform. Fold change increase in IFN-γ expression mediated by compound treatment relative to HBV-specific peptide treatment alone was determined (Table 3).

PD-L1 His protein / PD-1 Fc protein, sequence (Q9NZQ7 19-238): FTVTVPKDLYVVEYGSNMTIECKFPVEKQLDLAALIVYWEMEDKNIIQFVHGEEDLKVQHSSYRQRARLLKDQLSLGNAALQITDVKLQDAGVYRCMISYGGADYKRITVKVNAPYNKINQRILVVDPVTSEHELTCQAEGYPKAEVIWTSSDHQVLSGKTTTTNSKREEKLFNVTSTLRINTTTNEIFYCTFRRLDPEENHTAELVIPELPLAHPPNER
human PD-L1, sequence (Q9NZQ7 19-290): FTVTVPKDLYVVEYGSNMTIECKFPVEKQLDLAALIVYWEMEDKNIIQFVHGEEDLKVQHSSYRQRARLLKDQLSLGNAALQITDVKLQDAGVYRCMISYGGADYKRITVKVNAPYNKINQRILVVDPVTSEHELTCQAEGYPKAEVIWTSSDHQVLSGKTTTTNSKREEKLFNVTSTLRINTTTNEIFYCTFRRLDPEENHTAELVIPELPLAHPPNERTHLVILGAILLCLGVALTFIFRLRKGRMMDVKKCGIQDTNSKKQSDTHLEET

COc1cc(-c2nccc(-c3cccc(-c4ccc(CN5CC6(CNC(=O)C6)C5)c(OC)n4)c3Cl)c2Cl)ccc1CN1CC2(CNC(=O)C2)C1 [Compound 89, 2-(4-(3-chloro-4-(2-chloro-3-(6-methoxy-5-((7-oxo-2,6-diazaspiro[3.4]octan-2-yl)methyl)pyridin-2-yl)phenyl)pyridin-2-yl)-2-methoxybenzyl)-2,6-diazaspiro[3.4]octan-7-one]
EC50 (human PD-L1): 16.5 nM | Tumor Volume (group mean) ([1]; 10 mg/kg × 28 days, oral gavage once daily, study day 2): 122 mm^3 | Tumor Volume (group mean) ([1]; 10 mg/kg × 28 days, oral gavage once daily, study day 5): 170 mm^3 | Tumor Volume (group mean) ([1]; 10 mg/kg × 28 days, oral gavage once daily, study day 9): 227 mm^3 | Tumor Volume (group mean) ([1]; 10 mg/kg × 28 days, oral gavage once daily, study day 12): 223 mm^3 | Tumor Volume (group mean) ([1]; 10 mg/kg × 28 days, oral gavage once daily, study day 16): 222 mm^3 | Tumor Volume (group mean) ([1]; 10 mg/kg × 28 days, oral gavage once daily, study day 19): 252 mm^3 | Tumor Volume (group mean) ([1]; 10 mg/kg × 28 days, oral gavage once daily, study day 23): 279 mm^3 | Tumor Volume (group mean) ([1]; 10 mg/kg × 28 days, oral gavage once daily, study day 26): 328 mm^3 | Tumor Volume (group mean) ([1]; 10 mg/kg × 28 days, oral gavage once daily, study day 28): 346 mm^3 | Tumor Volume (group mean) ([1]; 10 mg/kg × 28 days, oral gavage once daily, study day −1): 105 mm^3 | Tumor Volume (group mean) ([1]; 30 mg/kg × 7 days, oral gavage once daily, study day 2): 116 mm^3 | Tumor Volume (group mean) ([1]; 30 mg/kg × 7 days, oral gavage once daily, study day 5): 164 mm^3 | Tumor Volume (group mean) ([1]; 30 mg/kg × 7 days, oral gavage once daily, study day 9): 176 mm^3 | Tumor Volume (group mean) ([1]; 30 mg/kg × 7 days, oral gavage once daily, study day 12): 212 mm^3 | Tumor Volume (group mean) ([1]; 30 mg/kg × 7 days, oral gavage once daily, study day 16): 243 mm^3 | Tumor Volume (group mean) ([1]; 30 mg/kg × 7 days, oral gavage once daily, study day 19): 310 mm^3 | Tumor Volume (group mean) ([1]; 30 mg/kg × 7 days, oral gavage once daily, study day 23): 418 mm^3 | Tumor Volume (group mean) ([1]; 30 mg/kg × 7 days, oral gavage once daily, study day 26): 564 mm^3 | Tumor Volume (group mean) ([1]; 30 mg/kg × 7 days, oral gavage once daily, study day 28): 607 mm^3 | Tumor Volume (group mean) ([1]; 30 mg/kg × 7 days, oral gavage once daily, study day −1): 105 mm^3 | IC50 [2]: 0.5 nM | Fold Change in IFN-γ Expression of HBV-specific T Cells (HBV-specific T cells; Chronic Hepatitis B Donor 1): 2.0 Fold Change | Fold Change in IFN-γ Expression of HBV-specific T Cells (HBV-specific T cells; Chronic Hepatitis B Donor 2): 2.0 Fold Change | Fold Change in IFN-γ Expression of HBV-specific T Cells (HBV-specific T cells; Chronic Hepatitis B Donor 3): 1.5 Fold Change | Fold Change in IFN-γ Expression of HBV-specific T Cells (HBV-specific T cells; Chronic Hepatitis B Donor 4): 3.7 Fold Change | Fold Change in IFN-γ Expression of HBV-specific T Cells (HBV-specific T cells; Chronic Hepatitis B Donor 5): 1.5 Fold Change | Fold Change in IFN-γ Expression of HBV-specific T Cells (HBV-specific T cells; Chronic Hepatitis B Donor 6): 2.7 Fold Change | Fold Change in IFN-γ Expression of HBV-specific T Cells (HBV-specific T cells; Chronic Hepatitis B Donor 7): 1.3 Fold Change | Fold Change in IFN-γ Expression of HBV-specific T Cells (HBV-specific T cells; Chronic Hepatitis B Donor 8): 2.2 Fold Change | Fold Change in IFN-γ Expression of HBV-specific T Cells (HBV-specific T cells; Chronic Hepatitis B Donor 9): 1.5 Fold Change | Fold Change in IFN-γ Expression of HBV-specific T Cells, Mean ± SD (HBV-specific T cells): 2.0 ± 0.8 Fold Change

atezolizumab
Tumor Volume (group mean) ([1]; intraperitoneal 0.3 mg/kg thrice weekly, study days 1 to 15, study day 2): 122 mm^3 | Tumor Volume (group mean) ([1]; intraperitoneal 0.3 mg/kg thrice weekly, study days 1 to 15, study day 5): 162 mm^3 | Tumor Volume (group mean) ([1]; intraperitoneal 0.3 mg/kg thrice weekly, study days 1 to 15, study day 9): 156 mm^3 | Tumor Volume (group mean) ([1]; intraperitoneal 0.3 mg/kg thrice weekly, study days 1 to 15, study day 12): 192 mm^3 | Tumor Volume (group mean) ([1]; intraperitoneal 0.3 mg/kg thrice weekly, study days 1 to 15, study day 16): 242 mm^3 | Tumor Volume (group mean) ([1]; intraperitoneal 0.3 mg/kg thrice weekly, study days 1 to 15, study day 19): 243 mm^3 | Tumor Volume (group mean) ([1]; intraperitoneal 0.3 mg/kg thrice weekly, study days 1 to 15, study day 23): 341 mm^3 | Tumor Volume (group mean) ([1]; intraperitoneal 0.3 mg/kg thrice weekly, study days 1 to 15, study day 26): 429 mm^3 | Tumor Volume (group mean) ([1]; intraperitoneal 0.3 mg/kg thrice weekly, study days 1 to 15, study day 28): 472 mm^3 | Tumor Volume (group mean) ([1]; intraperitoneal 0.3 mg/kg thrice weekly, study days 1 to 15, study day −1): 105 mm^3

COc1cc(-c2nccc(-c3cccc(-c4ccc(CN5CC6(C5)CN(C(C)=O)C6)c(OC)n4)c3Cl)c2Cl)ccc1CN1CC2(C1)CN(C(C)=O)C2 [Compound 90, 1-(6-((6-(3-(2-(4-((6-acetyl-2,6-diazaspiro[3.3]heptan-2-yl)methyl)-3-methoxyphenyl)-3-chloropyridin-4-yl)-2-chlorophenyl)-2-methoxypyridin-3-yl)methyl)-2,6-diazaspiro[3.3]heptan-2-yl)ethan-1-one]
EC50 (human PD-L1): 58.3 nM | IC50 [2]: 0.7 nM | Fold Change in IFN-γ Expression of HBV-specific T Cells (HBV-specific T cells; Chronic Hepatitis B Donor 1): 1.7 Fold Change | Fold Change in IFN-γ Expression of HBV-specific T Cells (HBV-specific T cells; Chronic Hepatitis B Donor 2): 2.2 Fold Change | Fold Change in IFN-γ Expression of HBV-specific T Cells (HBV-specific T cells; Chronic Hepatitis B Donor 3): 1.9 Fold Change | Fold Change in IFN-γ Expression of HBV-specific T Cells (HBV-specific T cells; Chronic Hepatitis B Donor 4): 3.0 Fold Change | Fold Change in IFN-γ Expression of HBV-specific T Cells (HBV-specific T cells; Chronic Hepatitis B Donor 5): 1.2 Fold Change | Fold Change in IFN-γ Expression of HBV-specific T Cells (HBV-specific T cells; Chronic Hepatitis B Donor 6): 2.5 Fold Change | Fold Change in IFN-γ Expression of HBV-specific T Cells (HBV-specific T cells; Chronic Hepatitis B Donor 7): 1.5 Fold Change | Fold Change in IFN-γ Expression of HBV-specific T Cells (HBV-specific T cells; Chronic Hepatitis B Donor 8): 2.1 Fold Change | Fold Change in IFN-γ Expression of HBV-specific T Cells (HBV-specific T cells; Chronic Hepatitis B Donor 9): 1.2 Fold Change | Fold Change in IFN-γ Expression of HBV-specific T Cells, Mean ± SD (HBV-specific T cells): 1.9 ± 0.6 Fold Change
